Experimental data: patent US20170313664A1, “NOVEL FORM OF PYRIMIDINE COMPOUND HAVING DIBENZYLAMINE STRUCTURE” (KOWA COMPANY, LTD., priority 2013, published 2017)

Assay: Heat stability test (remaining percentage by HPLC peak area after preservation in a glass bottle)
Assay type: physicochemical
Settings: for Remaining percentage (%) of pyrimidine compound (1): HPLC area percentage, 242 nm
Method: A test compound was placed in a glass bottle, and it was then preserved for a predetermined period of time under temperature conditions of 80° C., 100° C., or 120° C. Thereafter, the remaining percentage (%) of the pyrimidine compound (1) in the test compound was measured.
The remaining percentage was obtained by measuring the rate of the pyrimidine compound (1) contained in the test compound according to high performance liquid chromatography and expressing the measured value as a peak area percentage. In the measurement according to high performance liquid chromatography, an ODS column was used as a column, and a mixture of two solvents, namely, a 0.1% TFA aqueous solution and a 0.1% TFA acetonitrile solution, was used as a solvent. The detection wavelength was set at 242 nm.
From the obtained area percentage of the pyrimidine compound (1), the remaining percentage was calculated according to the following calculation formula.
Remaining percentage (%)=Area percentage of pyrimidine compound (1) after preservation/area percentage of pyrimidine compound (1) before preservation×100
As test compounds, the crystal obtained in Example 1-3 (a crystal of the pyrimidine compound (1) hydrochloride) and a free form of the pyrimidine compound (1) were used.

[1] = After preservation at 80° C. for 72 hours
[2] = After preservation at 100° C. for 24 hours
[3] = After preservation at 120° C. for 16 hours

| Compound | Remaining percentage (%) of pyrimidine compound (1) [1] [%] | Remaining percentage (%) of pyrimidine compound (1) [2] [%] | Remaining percentage (%) of pyrimidine compound (1) [3] [%] | Heat stability (overall assessment) (conclusion from the test results of Table 8 (80-120° C.)) |
| --- | --- | --- | --- | --- |
| CCN(C[C@H]1CC[C@H](CC(=O)O)CC1)c1ccc(C(F)(F)F)cc1CN(c1ncc(OCCS(C)(=O)=O)cn1)[C@@H](C)c1cc(C(F)(F)F)cc(C(F)(F)F)c1.Cl [(S)-trans-{4-[({2-[({1-[3,5-bis(trifluoromethyl)phenyl]ethyl}{5-[2-(methylsulfonyl)ethoxy]pyrimidin-2-yl}amino)methyl]-4-(trifluoromethyl)phenyl}(ethyl)amino)methyl]cyclohexyl}acetic acid monohydrochloride] | 100.0 | 100.0 | 99.5 | excellent heat stability |
| CCN(C[C@H]1CC[C@H](CC(=O)O)CC1)c1ccc(C(F)(F)F)cc1CN(c1ncc(OCCS(C)(=O)=O)cn1)[C@@H](C)c1cc(C(F)(F)F)cc(C(F)(F)F)c1 [Free form of pyrimidine compound (1), (S)-trans-{4-[({2-[({1-[3,5-bis(trifluoromethyl)phenyl]ethyl}{5-[2-(methylsulfonyl)ethoxy]pyrimidin-2-yl}amino)methyl]-4-(trifluoromethyl)phenyl}(ethyl)amino)methyl]cyclohexyl}acetic acid] | 99.5 | 89.3 | 71.5 |  |
